The results in this text go back to patent USRE47589E1, “Phosphoramidate compounds and methods of use” (NuCana plc, priority 2003, dated 2019).

Like-named read-outs stand apart in the source and are kept apart here.

Holding throughout (type): cell-based
The subject of assay [1] is human colon cancer cell line (HT115). Nature of the assay: MTT cytotoxicity assay, colon cancer cell line. On the procedure:
(§1) The compounds include those whose preparations are described above and compounds made by preparative methods corresponding to the methods described above.
(§2) Compounds were diluted over a range of concentrations and added to cells over 1 to 3 days. The cytotoxity was determined using a MTT assay at the end of each experiment.
In general terms: Tetrazolium dyes change colour on reduction, which living cells bring about.

In assay [2] the test system is human breast cancer cell line (MDA MB 231). Nature of the assay: MTT cytotoxicity assay, breast cancer cell line. The following applies: Homo sapiens, MDA-MB-231, read-out: EC50/μM Breast MDA MB231. On the procedure: as §1, §2
The test system of assay [3] is human prostate cancer cell line (PC-3). Nature of the assay: MTT cytotoxicity assay, prostate cancer cell line. The following applies: read-out: EC50/μM Prostate PC-3. On the procedure: as §1, §2
Setting [4] is: Homo sapiens, HT115, read-out: EC50/μM Colon HT115, MTT assay, compounds added to cells over 1 to 3 days.
The mark [5] stands for this setting: MTT assay, compounds added to cells over 1 to 3 days, read-out: EC50/μM Colon HT115.
The mark [6] stands for this setting: MTT assay, compounds added to cells over 1 to 3 days.

Consider `CCOC(=O)C1(NP(=O)(OC[C@H]2O[C@@H](n3cc(/C=C/Br)c(=O)[nH]c3=O)CC2O)Oc2ccc(F)cc2)CCCC1` (stereo partly drawn) [Example 23, (E)-5-(2-Bromovinyl)-2′-deoxyuridine-5′-[para-fluorophenyl-(ethoxy-α,α-cycloleucinyl)]-phosphate], for which the EC50 came out at 18.1 µM in assay [1] (setting [4]), 9.9 µM in assay [2] and 2.7 µM in assay [3] (Homo sapiens).
Take `O=c1[nH]c(=O)n([C@H]2CC(O)[C@@H](CO)O2)cc1/C=C/Br` (stereo in doubt) [Example A, 5-(2-Bromovinyl)-2′-deoxyuridine, reference compound]: the figures for the EC50 in assay [1] (setting [4]), in assay [2] and in assay [3] (Homo sapiens) were 78.7 µM, 125 µM and 120 µM, respectively.
With `C[C@H](NP(=O)(OC[C@H]1O[C@@H](n2ccc(N)nc2=O)C(F)(F)C1O)Oc1ccc(Cl)cc1)C(=O)OCc1ccccc1` (stereo partly drawn) [Example 40, Gemcitabine-[para-chlorophenyl-(benzoxy-L-alaninyl)]-phosphate], the results for the EC50 in assay [1] (setting [4]), in assay [2] and in assay [3] (Homo sapiens) were 16.1 µM, 9.2 µM and 15.4 µM, respectively.
Taken in the same sequence, the figures for `CCOC(=O)C(C)(C)NP(=O)(OC[C@H]1O[C@@H](n2cc(/C=C/Br)c(=O)[nH]c2=O)CC1O)Oc1ccc(Cl)cc1` (stereo partly drawn) [Example 43, (E)-5-(2-bromovinyl)-2′-deoxyuridine-5′-[4-chlorophenyl-(ethoxy-α,α-dimethylglycinyl)]-phosphate] were 174 µM, 5.9 µM and 1.15 µM.
Regarding `CC(C)(NP(=O)(OC[C@H]1O[C@@H](n2cc(/C=C/Br)c(=O)[nH]c2=O)CC1O)Oc1ccccc1)C(=O)OCc1ccccc1` (stereo partly drawn) [Example 14, (E)-5-(2-bromovinyl)-2′-deoxyuridine-5′-[phenyl-(benzoxy-α,α-dimethylglycinyl)]-phosphate], the EC50 in assay [1] (setting [4]) was 14.5 µM; in assay [2], 19 µM; in assay [3] (Homo sapiens), 5.1 µM.
Regarding “propenate-2′-deoxyuridine [Example 67, reference compound]”, the EC50 in assay [1] (setting [5]) is 93.7 µM.
With `C[C@H](NP(=O)(OC[C@H]1O[C@@H](n2cc(/C=C/Br)c(=O)[nH]c2=O)CC1O)Oc1ccc(F)cc1)C(=O)OCc1ccccc1` (stereo partly drawn) [Example 7], the figures for the EC50 in assay [1] (setting [4]), in assay [2] and in assay [3] (Homo sapiens) were 3.5 µM, 17 µM and 16 µM, respectively.
Take `O=C(OCc1ccccc1)C(NP(=O)(OCC1OC(n2cc(C=CBr)c(=O)[nH]c2=O)CC1O)Oc1ccc(C(F)(F)F)cc1)c1ccccc1` (stereo not drawn) [Example 91]: the EC50 in assay [3] (setting [6]) was 0.7 µM.
`O=C(CNP(=O)(OCC1OC(n2cc(C=CBr)c(=O)[nH]c2=O)CC1O)Oc1ccc(Cl)cc1)OCc1ccccc1` (stereo not drawn) [Example 77]: the EC50 in assay [3] (setting [6]) is 150 µM.
Turning to `CCOC(=O)[C@H](C)NP(=O)(OC[C@H]1O[C@@H](n2cc(/C=C/Br)c(=O)[nH]c2=O)CC1O)Oc1ccc([N+](=O)[O-])cc1` (stereo partly drawn) [Example 9, (E)-5-(2-Bromovinyl)-2′-deoxyuridine-5′-[para-nitrophenyl-(ethoxy-L-alaninyl)]-phosphate], the values for the EC50 in assay [1] (setting [4]), in assay [2] and in assay [3] (Homo sapiens) were 119 µM, 177 µM and 365 µM, respectively.
For the molecule `COC(=O)[C@H](C)NP(=O)(OC[C@H]1O[C@@H](n2cc(/C=C/Br)c(=O)[nH]c2=O)CC1O)Oc1ccc(F)cc1` (stereo partly drawn) [Example 5, (E)-5-(2-Bromovinyl)-2′-deoxyuridine-5′-[para-fluorophenyl-(methoxy-L-alaninyl)]-phosphate], the values for the EC50 in assay [1] (setting [4]), in assay [2] and in assay [3] (Homo sapiens) were 17 µM, 159 µM and 58 µM, respectively.
Consider `CCOC(=O)[C@H](C)NP(=O)(OC[C@H]1O[C@@H](n2cc(/C=C/Br)c(=O)[nH]c2=O)CC1O)Oc1ccc(C(F)(F)F)cc1` (stereo partly drawn) [Example 25], for which the EC50 in assay [1] (setting [4]) turned out to be 4.6 µM; in assay [2], 33.8 µM.
Regarding `CCOC(=O)C1(NP(=O)(OC[C@H]2O[C@@H](n3cc(/C=C/Br)c(=O)[nH]c3=O)CC2O)Oc2ccc(Cl)cc2)CCCC1` (stereo partly drawn) [Example 33, (E)-5-(2-Bromovinyl)-2′-deoxyuridine-5′-[para-chlorophenyl-(ethoxy-α,α-cycloleucinyl)]-phosphate], the EC50 in assay [1] (setting [4]) came out at 97.9 µM; in assay [2], 12 µM; in assay [3] (Homo sapiens), 83.2 µM.
Turning to `CCOC(=O)C1(NP(=O)(OC[C@H]2O[C@@H](n3cc(/C=C/Br)c(=O)[nH]c3=O)CC2O)Oc2ccc(C(F)(F)F)cc2)CCCC1` (stereo partly drawn) [Example 29, (E)-5-(2-Bromovinyl)-2′-deoxyuridine-5′-[para-trifluorophenyl-(ethoxy-α,α-cycloleucinyl)]-phosphate], the EC50 stood at 15.1 µM in assay [1] (setting [4]), 45.6 µM in assay [2] and 4.3 µM in assay [3] (Homo sapiens).
Regarding `COC(=O)C(C)(C)NP(=O)(OC[C@H]1O[C@@H](n2cc(/C=C/Br)c(=O)[nH]c2=O)CC1O)Oc1ccc(Cl)cc1` (stereo partly drawn) [Example 42, (E)-5-(2-bromovinyl)-2′-deoxyuridine-5′-[4-chlorophenyl-(methoxy-α,α-dimethylglycinyl)]-phosphate], the EC50 in assay [1] (setting [4]) was found to be 183 µM; in assay [2] it was 8.7 µM; in assay [3] (Homo sapiens), 442 µM.
As for `CCOC(=O)C1(NP(=O)(OC[C@H]2O[C@@H](n3cc(/C=C/Br)c(=O)[nH]c3=O)CC2O)Oc2ccccc2)CCCC1` (stereo partly drawn) [Example 17, (E)-5-(2-Bromovinyl)-2′-deoxyuridine-5′-[phenyl-(ethoxy-α, α-cycloleucinyl)]-phosphate], the EC50 in assay [1] (setting [4]) stood at 81.3 µM; in assay [2] it was 44 µM; in assay [3] (Homo sapiens), 41 µM.
Regarding `O=C(OCc1ccccc1)C1(NP(=O)(OC[C@H]2O[C@@H](n3cc(/C=C/Br)c(=O)[nH]c3=O)CC2O)Oc2ccccc2)CCCC1` (stereo partly drawn) [Example 18, (E)-5-(2-Bromovinyl)-2′-deoxyuridine-5′-[phenyl-(benzoxy-α, α-cycloleucinyl)]-phosphate], the results for the EC50 in assay [1] (setting [4]), in assay [2] and in assay [3] (Homo sapiens) were 9.7 µM, 78 µM and 33 µM, respectively.
With `CC(C)(NP(=O)(OCC1OC(n2cc(C=CBr)c(=O)[nH]c2=O)CC1O)Oc1ccc(F)cc1)C(=O)OCc1ccccc1` (stereo not drawn) [Example 84], the EC50 in assay [3] (setting [6]) was 4.5 µM.
Regarding `COC(=O)C(C)(C)NP(=O)(OC[C@H]1O[C@@H](n2cc(/C=C/Br)c(=O)[nH]c2=O)CC1O)Oc1ccc([N+](=O)[O-])cc1` (stereo partly drawn) [Example 45, (E)-5-(2-bromovinyl)-2′-deoxyuridine-5′-[4-nitrophenyl-(methoxy-α,α-dimethylglycinyl)]-phosphate], the EC50 in assay [1] (setting [4]) amounted to 24.7 µM; in assay [2], 9.4 µM; in assay [3] (Homo sapiens), 223 µM.
`COC(=O)C1(NP(=O)(OC[C@H]2O[C@@H](n3cc(/C=C/Br)c(=O)[nH]c3=O)CC2O)Oc2ccc(C(F)(F)F)cc2)CCCC1` (stereo partly drawn) [Example 28, (E)-5-(2-Bromovinyl)-2′-deoxyuridine-5′-[para-trifluorophenyl-(methoxy-α,α-cycloleucinyl)]-phosphate]: the results for the EC50 in assay [1] (setting [4]) and in assay [2] were 21.2 µM and 28.8 µM, respectively.
Consider `O=C(OCc1ccccc1)C1(NP(=O)(OC[C@H]2O[C@@H](n3cc(/C=C/Br)c(=O)[nH]c3=O)CC2O)Oc2ccc(F)cc2)CCCC1` (stereo partly drawn) [Example 24, (E)-5-(2-Bromovinyl)-2′-deoxyuridine-5′-[para-fluorophenyl-(benzoxy-α,α-cycloleucinyl)]-phosphate], for which the EC50 was 17 µM in assay [1] (setting [4]), 9.4 µM in assay [2] and 3.7 µM in assay [3] (Homo sapiens).
Turning to `O=C(OCc1ccccc1)C1(NP(=O)(OC[C@H]2O[C@@H](n3cc(/C=C/Br)c(=O)[nH]c3=O)CC2O)Oc2ccc([N+](=O)[O-])cc2)CCCC1` (stereo partly drawn) [Example 21, (E)-5-(2-Bromovinyl)-2′-deoxyuridine-5′-[para-nitrophenyl-(benzoxy-α,α-cycloleucinyl)]-phosphate], the figures for the EC50 in assay [1] (setting [4]), in assay [2] and in assay [3] (Homo sapiens) were 17.2 µM, 8.4 µM and 2.2 µM, respectively.
As for `CC(C)C(NP(=O)(OCC1OC(n2cc(C=CBr)c(=O)[nH]c2=O)CC1O)Oc1ccccc1)C(=O)OCc1ccccc1` (stereo not drawn) [Example 85], in assay [3] (setting [6]), the EC50 was 31.2 µM.
Turning to `O=C(OCc1ccccc1)C(Cc1ccccc1)NP(=O)(OCC1OC(n2cc(C=CBr)c(=O)[nH]c2=O)CC1O)Oc1ccccc1` (stereo not drawn) [Example 54], the EC50 in assay [1] (setting [5]) is 5.1 µM.
As to `C[C@H](NP(=O)(OC[C@H]1O[C@@H](n2cc(/C=C/Br)c(=O)[nH]c2=O)CC1O)Oc1ccc([N+](=O)[O-])cc1)C(=O)OCc1ccccc1` (stereo partly drawn) [Example 8, (E)-5-(2-Bromovinyl)-2′-deoxyuridine-5′-[para-nitrophenyl-(benzoxy-L-alaninyl)]-phosphate], the EC50 in assay [1] (setting [4]) was determined as 9 µM; in assay [2], 28 µM.
Turning to `CC(C)[C@H](NP(=O)(OC[C@H]1O[C@@H](n2cc(/C=C/Br)c(=O)[nH]c2=O)C[C@@H]1O)Oc1ccc(C(F)(F)F)cc1)C(=O)OCc1ccccc1` (stereo partly drawn) [Example 78], the EC50 in assay [3] (setting [6]) turned out to be 1.6 µM.
`O=C(OCc1ccccc1)C1(NP(=O)(OC[C@H]2O[C@@H](n3cc(/C=C/Br)c(=O)[nH]c3=O)CC2O)Oc2ccc(C(F)(F)F)cc2)CCCC1` (stereo partly drawn) [Example 30, (E)-5-(2-Bromovinyl)-2′-deoxyuridine-5′-[para-trifluorophenyl-(benzoxy-α,α-cycloleucinyl)]-phosphate]: the EC50 came to 6.4 µM in assay [1] (setting [4]) and 6.9 µM in assay [2].
Consider `CCOC(=O)C(NP(=O)(OCC1OC(n2cc(C=CBr)c(=O)[nH]c2=O)CC1O)Oc1ccccc1)C(C)CC` (stereo not drawn) [Example 73], for which the EC50 in assay [3] (setting [6]) amounted to 30.6 µM.
For `CCOC(=O)C(C)(C)NP(=O)(OCC1OC(n2cc(C=CBr)c(=O)[nH]c2=O)CC1O)Oc1ccc(C(F)(F)F)cc1` (stereo not drawn) [Example 59], in assay [1] (setting [5]), the EC50 is 24.7 µM.
Turning to `CC(C)C(NP(=O)(OCC1OC(n2cc(C=CBr)c(=O)[nH]c2=O)CC1O)Oc1ccc(Cl)cc1)C(=O)OCc1ccccc1` (stereo not drawn) [Example 86], the EC50 in assay [3] (setting [6]) stood at 0.9 µM.
